Patent US5413990A, “N-terminus modified analogs of LHRH” (Tap Pharmaceuticals Inc., priority 1993, dated 1995)
Square brackets hold non-standard residues; d marks the D form. Peptide text beside a SMILES is read from it. * marks the point of attachment. dPhe(4-Cl) = N[C@H](Cc1ccc(Cl)cc1)C(=O)O; d2Nal = N[C@H](Cc1ccc2ccccc2c1)C(=O)O; Lys(iPr) = CC(C)NCCCC[C@H](N)C(=O)O; NMeY = CN[C@@H](Cc1ccc(O)cc1)C(=O)O; Hydrocinnamoyl = O=C(CCc1ccccc1)*; dCit = NC(=O)NCCC[C@@H](N)C(=O)O; d3Pal = N[C@H](Cc1cccnc1)C(=O)O; Nicotinoyl = O=C(c1cccnc1)*; PhAc = O=C(Cc1ccccc1)*; Bz = O=C(c1ccccc1)*; For = O=C*

Target: T1, LHRH (Rattus norvegicus, UniProt P30969)
T1 construct: evaluated in an in vitro test for LHRH antagonist potency (pA2); endogenous in cells; host or cells: pituitary cells (rat, from my own knowledge of the cited method)
T1 sequence (P30969 1-327): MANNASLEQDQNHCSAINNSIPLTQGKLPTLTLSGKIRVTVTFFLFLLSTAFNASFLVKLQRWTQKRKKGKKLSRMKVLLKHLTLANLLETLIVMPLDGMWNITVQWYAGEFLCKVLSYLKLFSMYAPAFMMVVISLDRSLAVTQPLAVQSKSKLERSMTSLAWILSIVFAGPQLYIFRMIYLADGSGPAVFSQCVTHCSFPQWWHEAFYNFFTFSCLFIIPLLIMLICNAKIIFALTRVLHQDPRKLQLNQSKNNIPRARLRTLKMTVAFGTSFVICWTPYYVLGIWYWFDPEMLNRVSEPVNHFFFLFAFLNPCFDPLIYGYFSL
Assay: in vitro test for LHRH antagonist potency (pA2)
Format: cell-based
Conditions: negative logarithm of the antagonist concentration required to shift the response curve produced by the agonist leuprolide to two-fold higher concentration
Procedure: Representative compounds of the present invention were evaluated in an in vitro test for LHRH antagonist potency (pA2). The test employed the method detailed in F. Haviv, et al. J. Med. Chem., 32:2340-2344 (1989). The values of pA2 are the negative logarithms of the concentration of the particular antagonist test compound required to shift the response curve produced by the agonist leuprolide to two-fold higher concentration. (Leuprolide is the LHRH agonist having the structure 5-oxo-Pro^1 -His^2 -Trp^3 -Ser^4 -Tyr^5 -D-Leu^6 -Leu^7 -Arg^8 -Pro^9 -NHEt and is disclosed and claimed in U.S. Pat. No. 4,005,063.) Typically pA2 values of 9.5 or greater are indicative of good LHRH antagonist potency, with values of 10.0 or greater being preferred.

SMILES | Kb
CC(C)C[C@H](NC(=O)[C@@H](CCCCNC(=O)c1cccnc1)NC(=O)[C@H](Cc1ccc(O)cc1)N(C)C(=O)[C@H](CO)NC(=O)[C@@H](Cc1cccnc1)NC(=O)[C@@H](Cc1ccc(Cl)cc1)NC(=O)[C@@H](Cc1ccc2ccccc2c1)NC(=O)c1ccccc1)C(=O)N[C@@H](CCCCNC(C)C)C(=O)N1CCC[C@H]1C(=O)N[C@H](C)C(N)=O [Example 2j, N-Benzoyl-D2Nal-D4ClPhe-D3Pal-Ser-NMeTyr-DLys(N-epsilon-Nicotinyl)-Leu-Lys(N-epsilon-Isopropyl)-Pro-DAlaNH2] (Bz-[d2Nal][dPhe(4-Cl)][d3Pal]S[NMeY][dK](Nicotinoyl)L[Lys(iPr)]P[dA]-NH2) | 0.0501 nM
CC(C)C[C@H](NC(=O)[C@@H](CCCCNC(=O)c1cccnc1)NC(=O)[C@H](Cc1ccc(O)cc1)N(C)C(=O)[C@H](CO)NC(=O)[C@@H](Cc1cccnc1)NC(=O)[C@@H](Cc1ccc(Cl)cc1)NC(=O)[C@@H](Cc1ccc2ccccc2c1)NC(=O)CCc1ccccc1)C(=O)N[C@@H](CCCCNC(C)C)C(=O)N1CCC[C@H]1C(=O)N[C@H](C)C(N)=O [Example 2l, N-3-Phenylpropionyl-D2Nal-D4ClPhe-D3Pal-Ser-NMeTyr-DLys(N-epsilon-Nicotinyl)-Leu-Lys(N-epsilon-Isopropyl)-Pro-DAlaNH 2] (Hydrocinnamoyl-[d2Nal][dPhe(4-Cl)][d3Pal]S[NMeY][dK](Nicotinoyl)L[Lys(iPr)]P[dA]-NH2) | 0.0126 nM
CC(C)C[C@H](NC(=O)[C@@H](CCCNC(N)=O)NC(=O)[C@H](Cc1ccc(O)cc1)N(C)C(=O)[C@H](CO)NC(=O)[C@@H](Cc1cccnc1)NC(=O)[C@@H](Cc1ccc(Cl)cc1)NC(=O)[C@@H](Cc1ccc2ccccc2c1)NC(=O)Cc1ccccc1)C(=O)N[C@@H](CCCNC(=N)N)C(=O)N1CCC[C@H]1C(=O)N[C@H](C)C(N)=O [Example 5f, NPhenylacetyl-D2Nal-D4ClPhe-D3Pal-Ser-NMeTyr-DCit-Leu-Arg-Pro-DAlaNH2] (PhAc-[d2Nal][dPhe(4-Cl)][d3Pal]S[NMeY][dCit]LRP[dA]-NH2) | 0.0158 nM
CC(C)C[C@H](NC(=O)[C@@H](CCCCNC(=O)c1cccnc1)NC(=O)[C@H](Cc1ccc(O)cc1)N(C)C(=O)[C@H](CO)NC(=O)[C@@H](Cc1cccnc1)NC(=O)[C@@H](Cc1ccc(Cl)cc1)NC(=O)[C@@H](Cc1ccc2ccccc2c1)NC=O)C(=O)N[C@@H](CCCCNC(C)C)C(=O)N1CCC[C@H]1C(=O)N[C@H](C)C(N)=O [Example 1, N-Formyl-D2Nal-D4ClPhe-D3Pal-Ser-NMeTyr-DLys(Nicotinyl)-Leu-Lys(N-epsilon-lsopropyl)-Pro-DAlaNH2] (For-[d2Nal][dPhe(4-Cl)][d3Pal]S[NMeY][dK](Nicotinoyl)L[Lys(iPr)]P[dA]-NH2) | 0.00158 nM
